Series [1] has as its target T1, Arginase-2, mitochondrial (Homo sapiens, UniProt P78540).
T1 sequence (P78540 whole entry): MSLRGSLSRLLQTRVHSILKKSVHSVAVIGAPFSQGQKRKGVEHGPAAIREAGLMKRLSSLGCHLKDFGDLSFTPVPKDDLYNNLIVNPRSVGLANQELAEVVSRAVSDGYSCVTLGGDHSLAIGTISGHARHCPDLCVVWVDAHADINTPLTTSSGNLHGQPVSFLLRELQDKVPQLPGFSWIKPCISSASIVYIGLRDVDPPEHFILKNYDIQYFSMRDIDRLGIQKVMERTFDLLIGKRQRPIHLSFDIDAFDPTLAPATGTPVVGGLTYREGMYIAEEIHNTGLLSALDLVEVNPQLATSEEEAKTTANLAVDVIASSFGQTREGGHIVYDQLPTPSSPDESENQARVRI
The series can be described thus: Inhibition of recombinant human Arg2 extracted from Escherichia coli incubated for 30 mins by Ellman's method. (In Ellman's method for cholinesterases, released thiocholine reacts with DTNB.)

The target in series [2] is T2, Arginase-1 (Homo sapiens, UniProt P05089).
T2 sequence (P05089 whole entry): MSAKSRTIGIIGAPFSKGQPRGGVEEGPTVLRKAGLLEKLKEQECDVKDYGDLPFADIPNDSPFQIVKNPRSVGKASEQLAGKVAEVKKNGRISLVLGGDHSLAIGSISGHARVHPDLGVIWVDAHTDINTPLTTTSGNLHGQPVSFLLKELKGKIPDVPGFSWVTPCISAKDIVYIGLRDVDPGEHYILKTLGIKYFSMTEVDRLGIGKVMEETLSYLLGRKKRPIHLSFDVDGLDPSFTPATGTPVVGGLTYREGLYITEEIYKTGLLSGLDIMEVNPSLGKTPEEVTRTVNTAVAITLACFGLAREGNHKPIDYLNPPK
The series can be described thus: Inhibition of recombinant human Arg1 extracted from Escherichia coli incubated for 30 mins by Ellman's method.

The nature of series [3]: Oral availability in rat. Type of series: ADME. As to conditions: in vivo.
The nature of series [4]: Prodrug conversion in rat assessed as oral bioavailability of (2S,3S)-2-amino-3-(aminomethyl)-6-boronohexanoic acid metabolite. Format: ADME, organism-based. The conditions noted are these: in vivo.
Series [5] addresses T2, Arginase-1. The series can be described thus: Inhibition of Arg1 (unknown origin).
Series [6] has as its target T3, Arginase-1 (Homo sapiens) (UniProt P05089).
T3 sequence (whole entry): T2 sequence (P05089 whole entry)
The series can be described thus: Potency index, ratio of ABH IC50 to test compound IC50 for recombinant human Arg1 extracted from Escherichia coli incubated for 30 mins by Ellman's method.

`COC(=O)[C@H](CCCB(O)O)[C@H](N)C(=O)O`: the IC50 in series [1] turned out to be 51.9 µM; in series [2], 18.5 µM.
Consider `NC(=O)[C@@H](CCCB(O)O)[C@H](N)C(=O)O`, for which the IC50 in series [1] and in series [2] was greater than 100 µM in each case.
For the compound `N[C@H](C(=O)O)[C@H](CF)CCCB(O)O`, the IC50 in series [1] turned out to be 1.88 µM; in series [2], 0.655 µM.
As to `C[C@H](N)C(=O)NC[C@@H](CCCB(O)O)[C@H](N)C(=O)O`, the IC50 in series [2] amounted to 157 µM. Besides, in series [3], the bioavailability is 10%.
As to `CC[C@H](C)[C@H](N)C(=O)NC[C@H](CCCB(O)O)[C@H](N)C(=O)O`, the F in series [4] is listed as 39%. For the same compound, the IC50 in series [2] is 33 µM. This compound also had a bioavailability in series [3] of 4.5%.
`CC(C)[C@H](N)C(=O)NC[C@H](CCCB(O)O)[C@H](N)C(=O)O`: the F in series [4] amounted to 41%. For the same compound, in series [2], the concentration for half-maximal inhibition (IC50) was determined as 43 µM. In series [3], this compound returned a bioavailability of 8.3%.
For the compound `NCC[C@@H](CCCB(O)O)[C@H](N)C(=O)O`, the IC50 in series [1] turned out to be 0.625 µM.
For the compound `N[C@H](C(=O)O)[C@@H](N)CCCB(O)O`, the results for the IC50 in series [1] and in series [2] were 96.8 µM and 74 µM, respectively.
Turning to `N[C@@H](CCCCB(O)O)C(=O)O`, the IC50 in series [5] came out at 0.47 µM.
As for `CNC(=O)[C@H](CCCB(O)O)[C@H](N)C(=O)O`, the figures for the IC50 in series [1] and in series [2] were greater than 100 µM and 34.2 µM, respectively.
With `NC[C@@H](CCCB(O)O)[C@H](N)C(=O)O`, in series [3], the bioavailability was determined as 17%.
On to `CNC[C@@H](CCCB(O)O)[C@H](N)C(=O)O`, for which, in series [1], the IC50 worked out at 1.93 µM.
In the case of `NC(=O)[C@H](CCCB(O)O)[C@H](N)C(=O)O`, the results for the IC50 in series [1] and in series [2] were 41.8 µM and 19.2 µM, respectively.
`CC(C)(C)[C@H](N)C(=O)NC[C@H](CCCB(O)O)[C@H](N)C(=O)O`: the IC50 in series [2] came out at 32 µM. Also, the bioavailability in series [3] was determined as 19%.
As for `NCC(=O)NC[C@H](CCCB(O)O)[C@H](N)C(=O)O`, the F in series [4] was 13%. In addition, the IC50 in series [2] stood at 21 µM. In series [3], the bioavailability was 6.3%.
For `N[C@H](C(=O)O)[C@@H](CF)CCCB(O)O`, the IC50 came to 6.08 µM in series [1] and 4.23 µM in series [2].
For `COC[C@H](CCCB(O)O)[C@H](N)C(=O)O`, the IC50 in series [1] was 6.75 µM; in series [2], 4.12 µM.
In the case of `NC[C@H](CCCB(O)O)[C@H](N)C(=O)O`, the IC50 in series [1] was 0.224 µM. Moreover, the bioavailability in series [3] was 11%.
With `N[C@H](C(=O)O)[C@H](CCCB(O)O)CN1CCCCC1`, the IC50 in series [1] is 17.4 µM.
`COC(=O)[C@@H](CCCB(O)O)[C@H](N)C(=O)O`: the IC50 in series [1] and in series [2] was greater than 100 µM in each case.
Regarding `CNC(=O)[C@@H](CCCB(O)O)[C@H](N)C(=O)O`, the IC50 in series [2] was greater than 100 µM.
Consider `NC(=O)NC[C@@H](CCCB(O)O)[C@H](N)C(=O)O`, for which, in series [1], the IC50 was 5.18 µM.
As for `CC(C)[C@H](N)C(=O)N[C@H](C(=O)O)[C@H](CN)CCCB(O)O`, the F in series [4] stood at 31%.
In the case of `CC(C)[C@H](N)C(=O)NC[C@@H](CCCB(O)O)[C@H](N)C(=O)O`, the F in series [4] turned out to be 56%. Besides, the 50% inhibitory concentration (IC50) in series [2] stood at 145 µM. In series [3], this compound gave a bioavailability of 29%.
For the compound `N=C(N)NC[C@@H](CCCB(O)O)[C@H](N)C(=O)O`, the IC50 in series [1] is 0.534 µM; in series [2], 0.22 µM.
In the case of `C[C@H](N)C(=O)NC[C@H](CCCB(O)O)[C@H](N)C(=O)O`, in series [6], the Ratio IC50 was 40. In addition, in series [4], the F came to 55%. The IC50 in series [2] was 12 µM. The same compound registered a bioavailability in series [3] of 5.1%.
For `C[C@H](N)C(=O)N[C@H](C(=O)O)[C@H](CN)CCCB(O)O`, the F in series [4] was 66%. Besides, the IC50 in series [2] came to 68 µM.
For `CC[C@H](N)C(=O)NC[C@H](CCCB(O)O)[C@H](N)C(=O)O`, the F in series [4] is 72%. Also, in series [2], the IC50 turned out to be 25 µM. Also, in series [3], the bioavailability worked out at 1.5%.
`C[C@H](N)C(=O)N[C@H](C(=O)O)[C@@H](CN)CCCB(O)O`: the F in series [4] was 16%.
Take `COC[C@@H](CCCB(O)O)[C@H](N)C(=O)O`: the figures for the IC50 in series [1] and in series [2] were 18.7 µM and 10.9 µM, respectively.

What is called IC50 is the point on the concentration scale where inhibition reaches its midpoint. The bioavailability is dose-corrected exposure relative to a reference, in per cent. High values mean much systemic uptake, low ones little systemic uptake.

The values are drawn from ChEMBL document CHEMBL6074666, “Design and Synthesis of Acyclic Boronic Acid Arginase Inhibitors” (J Med Chem, 2024).
